Several values for one entry are separate records, joined by “and”; a condition that tells them apart may be missing. Identical values can stand only once. Like-named read-outs stand apart in the source and are kept apart here. Bridge positions count the residues as written; N and C are the ends. Peptide text beside a SMILES is read from it.
Experiments:
[1] = system: responder cell alloreactive proliferation (human T cell); details: for inhibition (suppressive effect on human T cell activation): 3 h, 100 µM; for activity in human MLR / human T cell proliferation in vitro, in words: in b95 the words describe the cyclic peptide relative to the linear peptides KNSNQI, KNSNQ, NSNQI (linear ones less active)
Procedure: For this assay, fresh peripheral blood lymphocytes from two different donors are co-cultured; the cells of one donor were irradiated and served as stimulators. Proliferation of these activated T cells was measured by measuring the incorporation of ^3H-thymidine at various timepoints.
For human MLR, 50 ml of whole blood was collected into anti-coagulant (ACD, acid citrate dextrose) containing tubes. In 50 ml conical tubes, 20 ml of blood was layered over 20 ml Ficoll 1077 (Sigma Chemical Co., St. Louis, MO) and centrifuged at 2000 rpm for 35-40 min at 15-20°C. Buffy coats and serum were collected in 3x volume of PBS centrifuged at 1500 rpm for 15 min at 15-20°C. Supernatants were discarded, cells were washed 2x in 50 ml PBS and resuspended in RPMI supplemented with 10% heat-inactivated (56°, 30 min) human serum (cat# H4522, Sigma), 50 IU/ml pen/strep and 2mM (1% of 200 mM stock) L-glutamine (both from BioWhitaker). Lymphocyte yield varied between 5-8x10^7.
In a 96-well flat bottom plate 1 x 10^5 responders were plated with 2 x 10^5 irradiated (3000 rad) simulators/well (added in 100 µl each), and incubated for 6, 7 or 8 days at 37°C, 7% CO2. Peptide analogues were added to quadruplicate wells, at a concentration of 100 µM (5 mg/ml stock) or titrations thereof, immediately after cells were plated. For radiolabelling, the cells were incubated with 1 µCi [^3H]TdR/well (25 µl) (diluted from 1mCi/ml stock, Amersham) for the final 6 hours of incubation. Cells were harvested using a fiberfilter cell harvester (e.g., Harvester 96, Tomtec) and counted in a Beta Counter of Beta plate reader (1205 BS Betaplate Liquid Scintillation Counter, Wallac) with scintillation fluid.

[2] = system: interaction of CD4 and MHC, class II; experiment: Rosetting of Cr51-labelled Raji cells to stably T4-pMV7-transfected COS-1 cells; assay type: cell-based, human; details: 200 µM
Source text: In a second construct, the T4-pMV7 plasmid, which contains a Tn5 neo selectable marker, was introduced into Cos-1 cells by electroporation. Stably transfected cells were isolated by selection with G-418 and the resultant transformants expressed CD4.
Raji cells were labelled with Cr^51 and rosetted to the stably T4-pMV7-transfected COS-1 cells.

[3] = system: interaction of CD4 and MHC, class II; experiment: Rosetting of Raji cells and CD4-transiently transfected COS-7 cells, microscopic count; assay type: cell-based, human; details: 200 µM, three independent assays
Procedure: The cyclic peptide CNSNQIC (SEQ ID NO:45) at 200 µM was tested to determine if the peptide inhibited the interaction of CD4 and MHC, class II. The test was performed by rosetting Raji cells and CD4-transiently transfected COS-7 cells. See: Moebius, U. et al., 1992, Proc. Natl. Acad. Sci. 89:12008-12; Moebius, U., et al., 1993, Proc. Natl. Acad. Sci. 90:8259-63.
The sequence of human CD4 cDNA is given in Maddon, P.J. et al., 1985, CELL 42:93-104, which sequence is hereby incorporated by reference. […]
For transfection of COS-7 cells, a CD4-expression plasmid T4-pcDNA3, was constructed by subcloning the 3.0 Kb Eco R1 fragment of T4-pMV7 into the EcoRI site of the mammalian expression vector pcDNA3 (INVITROGEN). […] Rosette formation between Raji cells and transfected COS-7 cells was scored microscopically at 100-fold magnification. The number of rosette containing more than five Raji cells was counted in 10 random optical fields in each individual well; 300-400 rosettes per well were counted as the positive control for rosette formation without any inhibition in the absence of any chemicals. The inhibition activity for rosette formation for each chemical was determined by the ratio of the number of rosettes obtained in the presence of this chemical to the number of rosettes in the positive control. […]

[4] = system: EAE; experiment: EAE inhibition in vivo, SJL EAE model, daily severity score on 0-5 scale; parameters: species or system mice; details: for effect on EAE in mice, in words: b73: 0.5 mg dose i.v. 12 days after immunization
Procedure: The C-C' loop peptides were initially tested for efficacy in the SJL EAE model. In untreated animals, a high incidence of disease was observed 15-22 days after two s.c. inoculations of 1 mg of crude murine spinal cord homogenate in complete Freund's adjuvant. The severity of the disease was scored daily using the established 0-5 scale that describes the level of ascending paresis, Korngold, R., et al., 1986, Immunogenetics 24:309-315. The level of the mean EAE severity grade of mice for the untreated control group reached a maximum of 2.0. […] Also shown are the results of groups of mice that received the rD-mPGPtide, a mimic of residues 86-104 of murine homolog of CD4, which was described in Jameson et al. 1994, Nature 368:744-746.

[5] = biological target: MHC, class II, gene products on Raji cells (human); experiment: rosette assay, Raji cells (MHC class II) on CD4-transiently transfected COS-7 cells, peptide at 200 uM, blocks CD4/MHC class II interaction; independent assay 1 of 3
[6] = biological target: MHC, class II, gene products on Raji cells (human); experiment: rosette assay, Raji cells (MHC class II) on CD4-transiently transfected COS-7 cells, peptide at 200 uM, blocks CD4/MHC class II interaction; independent assay 2 of 3
[7] = biological target: MHC, class II, gene products on Raji cells (human); experiment: rosette assay, Cr51-labelled Raji cells (MHC class II) on stably T4-pMV7-transfected COS-1 cells (CD4), peptide at 200 uM
[8] = biological target: MHC, class II, gene products on Raji cells (human); experiment: rosette assay, Raji cells (MHC class II) on CD4-transiently transfected COS-7 cells, peptide at 200 uM, blocks CD4/MHC class II interaction; independent assay 3 of 3
[9] = listed as CNSNQIC (SEQ ID NO:44)

percent inhibition of rosettes [5]	percent inhibition of rosettes [6]	percent inhibition of rosetting [7]	percent inhibition of rosettes [8]	Compound	inhibition (suppressive effect on human T cell activation) [1]	activity in human MLR / human T cell proliferation in vitro, in words [1]	activity in human MLR / human T cell proliferation in vitro, in words [1, 9]	inhibition of rosetting [2]	inhibition of the rosettes [3]	maximum severity level (mean EAE severity grade) ([4]; 0.5 mg i.v. on day 12, 0-5 scale, untreated control group maximum 2.0)	effect on EAE in mice, in words [4]	effect on EAE in mice, in words [4, 9]
				CC[C@H](C)[C@@H]1NC(=O)[C@H](CCC(N)=O)NC(=O)[C@H](CC(N)=O)NC(=O)[C@H](CO)NC(=O)[C@H](CC(N)=O)NC(=O)[C@@H](N)CSSC[C@@H](C(=O)O)NC1=O [CNSNQIC (SEQ ID NO:45), CNSNQIC] (H-CNSNQIC-OH; disulfide 1-7 (inferred); N-terminus and C-terminus assumed)	54.4%	significantly higher activity than the linear peptides	highly potent inhibitor of human T cell proliferation	greater than 75%	57% and 63% and 51%	1.0	effective to ameliorate EAE	inhibitor of EAE in mice
				CC[C@H](C)[C@H](NC(=O)[C@H](CCC(N)=O)NC(=O)[C@H](CC(N)=O)NC(=O)[C@H](CO)NC(=O)[C@H](CC(N)=O)NC(=O)[C@@H](N)CS)C(=O)N[C@@H](CS)C(=O)O [linear CNSNQIC, CNSNQIC] (H-CNSNQIC-OH)	32.2%							
57%	63%	> 75%	51%	cyclic peptide CNSNQIC (SEQ ID NO:45)								

— EP0835125B1, “CD4-DERIVED PEPTIDES THAT INHIBIT IMMUNE RESPONSES” (THOMAS JEFFERSON UNIVERSITY, priority 1995, dated 2004)
